This is an account of results in PMC11790914, “Chemogenomics for steroid hormone receptors (NR3)” (Communications Chemistry, 2025).

Several values for one entry are separate records, joined by “and”; a condition that tells them apart may be missing. Equal values may be shown once.

Usually ΔTm stands for the shift of the melting midpoint relative to a reference.

For one data set, the target named is T1, GSK3B (Homo sapiens, UniProt P49841).
T1 construct: made in house
Nature of the data set: Liability panel screening by DSF: GSK3B. The note with it: DSF, 20 µM, n=2. Type of data set: binding. Background: In DSF a fluorescence change marks the thermal transition of the protein.

The target of another data set is T2, AURKA (Homo sapiens, UniProt O14965).
T2 construct: made in house
T2 sequence (O14965 1-403): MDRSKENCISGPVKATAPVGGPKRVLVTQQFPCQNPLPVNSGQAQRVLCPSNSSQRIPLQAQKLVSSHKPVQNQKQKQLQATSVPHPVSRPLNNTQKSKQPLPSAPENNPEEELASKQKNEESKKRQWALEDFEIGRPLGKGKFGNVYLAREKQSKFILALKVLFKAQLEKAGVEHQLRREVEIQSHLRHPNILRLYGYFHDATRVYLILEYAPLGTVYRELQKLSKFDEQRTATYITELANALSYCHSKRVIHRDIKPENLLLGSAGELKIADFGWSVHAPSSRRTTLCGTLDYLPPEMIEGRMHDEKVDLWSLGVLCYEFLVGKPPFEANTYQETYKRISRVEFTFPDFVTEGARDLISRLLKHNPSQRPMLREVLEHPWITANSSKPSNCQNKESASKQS
The data set can be described thus: Liability panel screening by DSF: AURKA. Type of data set: binding. The settings on record: DSF, 20 µM, n=2. A digest of the protocol:
(§1)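 ∆Tm in K was taken from Boltzmann-fitted unfolding inflection points, run in duplicate with a temperature ramp of 3 °C per minute up to 85 °C. Each recombinant protein (2 µM) was in HEPES 10 mM pH 7.5 and NaCl 500 mM, with SYPRO Orange dye at 1:1000.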

The test system of data set [1] is HEK293T cells. Nature of the data set: Cytotoxicity: apoptosis induction (caspase-3/7 DEVD fluorogenic DNA dye). The note with it: for Apoptosis induction [AI]: single replicates, DMSO 0.1% = 1.00.
The next data set addresses T3, ABL1 (Homo sapiens, UniProt P00519).
T3 construct: made in house
The data set can be described thus: Liability panel screening by DSF: ABL1. Type of data set: binding. The settings on record: DSF, 20 µM, n=2. Summed up: as §1

In data set [2] the test system is HEK293T cells. Nature of the data set: Cytotoxicity: growth-rate (change in confluence over 24 h). The note with it: normalized to 0.1% DMSO control, single replicates (n=1...).
Another data set concerns the target T4, CSNK1D (Homo sapiens, UniProt P48730).
T4 construct: made in house
Nature of the data set: Liability panel screening by DSF: CSNK1D. The format is binding. The settings on record: DSF, 20 µM, n=2. A digest of the protocol: as §1

The target in the next data set is T5, BRD4 (Homo sapiens, UniProt O60885).
T5 construct: This panel comprised ten highly ligandable kinases and bromodomains; made in house
The data set can be described thus: Liability panel screening by DSF: BRD4. The format is binding. The settings on record: DSF, 20 µM, n=2. Summed up:
as §1

Another data set has as its target T6, CDK2 (Homo sapiens, UniProt P24941).
T6 construct: made in house
Nature of the data set: Liability panel screening by DSF: CDK2. Type of data set: binding. The note with it: DSF, 20 µM, n=2. Summed up:
as §1

In data set [3] the test system is HEK293T cells. Nature of the data set: Cytotoxicity: metabolic activity (WST-8 / CCK-8 assay). The note with it: single replicates, DMSO 0.1% = 1.00.
The target in another data set is T7, TRIM24 (Homo sapiens, UniProt O15164).
T7 construct: This panel comprised ten highly ligandable kinases and bromodomains; made in house
T7 sequence (O15164 899-1004 limits assumed): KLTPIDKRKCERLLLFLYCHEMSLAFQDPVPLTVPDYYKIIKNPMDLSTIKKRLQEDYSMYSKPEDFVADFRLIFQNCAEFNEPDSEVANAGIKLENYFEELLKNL
Nature of the data set: Liability panel screening by DSF: TRIM24. Type of data set: binding. The settings on record: DSF, 20 µM, n=2. Summed up: as §1

T4 sequence (P48730 whole entry, species assumed): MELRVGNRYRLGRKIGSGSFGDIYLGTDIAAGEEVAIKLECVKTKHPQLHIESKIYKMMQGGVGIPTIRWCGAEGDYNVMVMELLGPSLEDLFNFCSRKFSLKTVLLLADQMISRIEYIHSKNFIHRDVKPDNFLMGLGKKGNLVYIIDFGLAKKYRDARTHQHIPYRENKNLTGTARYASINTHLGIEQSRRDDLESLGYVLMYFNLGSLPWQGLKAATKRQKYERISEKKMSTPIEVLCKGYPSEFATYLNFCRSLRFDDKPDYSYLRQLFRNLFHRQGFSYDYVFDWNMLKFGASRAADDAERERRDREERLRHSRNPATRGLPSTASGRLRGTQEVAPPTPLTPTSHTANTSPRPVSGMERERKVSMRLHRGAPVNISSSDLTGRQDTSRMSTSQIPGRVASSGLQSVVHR
T1 sequence (P49841 whole entry, species assumed): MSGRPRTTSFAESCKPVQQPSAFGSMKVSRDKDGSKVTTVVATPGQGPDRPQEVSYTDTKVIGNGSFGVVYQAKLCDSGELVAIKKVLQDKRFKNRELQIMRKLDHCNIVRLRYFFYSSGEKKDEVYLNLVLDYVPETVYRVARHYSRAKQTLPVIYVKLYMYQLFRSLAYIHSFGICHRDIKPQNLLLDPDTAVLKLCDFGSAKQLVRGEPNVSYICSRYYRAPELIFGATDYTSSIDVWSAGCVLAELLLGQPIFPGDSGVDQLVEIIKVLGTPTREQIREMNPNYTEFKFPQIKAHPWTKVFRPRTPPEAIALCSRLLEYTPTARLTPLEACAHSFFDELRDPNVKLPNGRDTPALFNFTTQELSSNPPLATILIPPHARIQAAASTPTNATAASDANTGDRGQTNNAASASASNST
T3 sequence (P00519 whole entry, species assumed): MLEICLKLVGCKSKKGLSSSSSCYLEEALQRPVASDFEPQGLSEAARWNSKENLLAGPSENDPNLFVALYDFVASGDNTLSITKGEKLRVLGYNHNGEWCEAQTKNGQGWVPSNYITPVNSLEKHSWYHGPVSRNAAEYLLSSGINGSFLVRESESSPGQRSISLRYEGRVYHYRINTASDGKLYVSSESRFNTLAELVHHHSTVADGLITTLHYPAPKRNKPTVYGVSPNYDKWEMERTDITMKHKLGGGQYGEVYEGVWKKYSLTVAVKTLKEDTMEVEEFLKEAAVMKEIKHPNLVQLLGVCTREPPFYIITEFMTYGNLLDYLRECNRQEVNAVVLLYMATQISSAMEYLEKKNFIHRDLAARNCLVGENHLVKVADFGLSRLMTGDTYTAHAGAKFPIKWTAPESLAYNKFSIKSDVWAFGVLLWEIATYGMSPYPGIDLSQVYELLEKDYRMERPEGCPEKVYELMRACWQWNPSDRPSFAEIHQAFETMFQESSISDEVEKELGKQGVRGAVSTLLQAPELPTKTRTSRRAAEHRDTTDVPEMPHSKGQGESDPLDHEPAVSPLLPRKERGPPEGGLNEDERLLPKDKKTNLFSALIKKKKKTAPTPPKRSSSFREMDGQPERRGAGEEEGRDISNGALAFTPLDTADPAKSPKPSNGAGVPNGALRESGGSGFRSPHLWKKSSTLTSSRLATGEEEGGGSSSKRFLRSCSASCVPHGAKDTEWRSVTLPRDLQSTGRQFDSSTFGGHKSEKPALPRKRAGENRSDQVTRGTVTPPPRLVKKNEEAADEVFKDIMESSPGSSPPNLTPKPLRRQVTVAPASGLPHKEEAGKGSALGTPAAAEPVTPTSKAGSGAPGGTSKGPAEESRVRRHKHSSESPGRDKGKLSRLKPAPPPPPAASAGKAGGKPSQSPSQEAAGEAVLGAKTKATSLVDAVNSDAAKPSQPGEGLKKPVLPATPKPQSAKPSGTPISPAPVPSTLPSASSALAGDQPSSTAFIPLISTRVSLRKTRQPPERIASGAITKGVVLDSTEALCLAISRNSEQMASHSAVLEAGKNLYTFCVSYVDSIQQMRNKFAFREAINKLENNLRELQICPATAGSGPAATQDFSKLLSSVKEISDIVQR

In the case of `COc1ccc(-c2coc3cc(O)cc(O)c3c2=O)cc1` [Biochanin A], the “Mean ΔTM GSK3B” value on GSK3B was -0.89 K. Besides, at AURKA, the “Mean ΔTM AURKA” value is 1.95 K. Further, in the data set with HEK293T cells [1] (10 µM), the “Apoptosis induction [AI]” value was 0.76 and 0.84. On ABL1, the “Mean ΔTM ABL1” value was determined as 1.61 K. For the same molecule, the “Growth rate [GR]” value with HEK293T cells [2] (10 µM) was 0.50 and 0.90 and 0.87 and 0.72 and 0.82 and 0.61. Moreover, the “Mean ΔTM CSNK1D” value at CSNK1D is reported as -0.77 K. The “Mean ΔTM BRD4” value on BRD4 turned out to be 0.32 K. Further, on CDK2, the “Mean ΔTM CDK2” value stood at 1.69 K. In the data set with HEK293T cells [3] (10 µM), the “Metabolic activity [MA]” value is 0.87 and 0.81 and 1.01 and 0.90 and 1.15 and 0.98. For the same molecule, the “Mean ΔTM TRIM24” value at TRIM24 came to 2.59 K.
As to `CCCC1O[C@@H]2C[C@H]3[C@@H]4CCC5=CC(=O)C=C[C@]5(C)[C@H]4[C@@H](O)C[C@]3(C)[C@]2(C(=O)CO)O1` (stereo partly shown) [Budesonide], the ΔTm at 20 µM on GSK3B (read-out: Mean ΔTM GSK3B) was -0.4 °C; at AURKA (read-out: Mean ΔTM AURKA), -0.16 °C; on ABL1 (read-out: Mean ΔTM ABL1) it was 0.48 °C; on CSNK1D (read-out: Mean ΔTM CSNK1D), -0.0262 °C; on BRD4 (read-out: Mean ΔTM BRD4) it was -1.67 °C; on CDK2 (read-out: Mean ΔTM CDK2), 0.00668 °C. Further, the ΔTm at 20 µM on TRIM24 (read-out: Mean ΔTM TRIM24) is -0.81 °C. Moreover, the “Apoptosis induction [AI]” value in the data set with HEK293T cells [1] (0.3 µM) is 1.00 and 1.74; with HEK293T cells [1] (3 µM), 1.77 and 1.74. The apoptosis induction entry in the data set on HEK293T cells [1] (HEK293T, 24 h, budesonide (3 µM), others at tested concentration) is on record as “slight apoptosis induction”. Further, the “Growth rate [GR]” value with HEK293T cells [2] (0.3 µM) was 0.59 and 0.92 (3×) and 1.24 and 0.68; in the data set on HEK293T cells [2] (3 µM), 0.90 and 1.09 and 1.10 and 0.85 and 0.69 and 0.78. In addition, the “Metabolic activity [MA]” value in the data set on HEK293T cells [3] (0.3 µM) was 1.02 and 0.97 and 1.07 and 0.99 and 1.12 and 1.03; in the data set with HEK293T cells [3] (3 µM), 0.86 and 0.88 and 1.03 (2×) and 1.13 and 0.99.
As for `C/C=C1\C(=O)C[C@H]2[C@@H]3CCC4=CC(=O)CC[C@]4(C)[C@H]3CC[C@]12C` [Z-Guggulsterone], the “Mean ΔTM GSK3B” value on GSK3B is -1.05 K. Further, the “Mean ΔTM AURKA” value at AURKA is -1.78 K. In the data set on HEK293T cells [1] (3 µM), the “Apoptosis induction [AI]” value is 0.63 and 1.35. The “Mean ΔTM ABL1” value on ABL1 came out at 0.07 K. Besides, in the data set on HEK293T cells [2] (3 µM), the “Growth rate [GR]” value is 0.73 and 0.88 and 1.06 and 0.96 and 0.82 and 1.15. The “Mean ΔTM CSNK1D” value at CSNK1D was 0.63 K. Also, at BRD4, the “Mean ΔTM BRD4” value is listed as -2.62 K. Moreover, on CDK2, the “Mean ΔTM CDK2” value was -0.30 K. Also, the “Metabolic activity [MA]” value in the data set on HEK293T cells [3] (3 µM) was 1.00 and 0.94 and 1.08 and 1.06 and 1.18 and 1.15. In addition, the “Mean ΔTM TRIM24” value on TRIM24 is reported as -2.32 K.
